Results published in patent publication US12479843B2, “Spiro ring-containing quinazoline compounds” (WIGEN BIOMEDICINE TECHNOLOGY (SHANGHAI) CO., LTD., priority 2019, dated 2025).

Tests used:
H358 cells = assay: Antiproliferative activity against H358 cells (Cell Titer Glow, ultra-low attachment plate); type: cell-based; conditions: Homo sapiens, NCI-H358, 72 h, 96-well ultra-low attachment plate, three days after addition of compound, Cell Titer Glow
Experimental: 2500 H358 cells were seeded in a 96-well ultra-low attachment plate (corning, 7007). After one day of growth, a serially diluted compound (a maximum concentration of 5 μM, 5-fold dilution, a total of five doses) was added. Three days after the addition of the compound, Cell Titer Glow (Promega, G9681) was added to evaluate pellet growth, and the IC50 value was calculated.

pERK level in H358 cells = assay: pERK and ERK protein content assay in H358 cells (ELISA); type: cell-based; conditions: Homo sapiens, NCI-H358, compound 1 μM, 24 h, pERK/ERK ratio compared with DMSO group, read-out: Inhibition rate (%) of pERK level
Summary of the method: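 Percent inhibition of pERK relative to DMSO, from the ELISA pERK/ERK ratio in lysed H358 cells. Compound applied at 1 μM for 24 h after one day of growth.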

| SMILES | IC50 (H358 cells) | inhibition at 1 µM (pERK level in H358 cells) |
| --- | --- | --- |
| C=CC(=O)N1CC2(CCN(c3nc(N4CC5(CC(N6CCC(C)C6)C5)C4)nc4c(OCC(F)(F)F)c(-c5c(C)ccc6[nH]ncc56)c(C5CC5)cc34)CC2)C1 (stereo not drawn) [Compound 292] | < 300 nM | > 90% |
| C=CC(=O)N1CC2(CCN(c3nc(N4CC5(CC(N6CC[C@@H](C)C6)C5)C4)nc4c(OCC(F)(F)F)c(-c5c(C)ccc6[nH]ncc56)c(C5CC5)cc34)CC2)C1 [Compound 293] | < 300 nM | > 90% |
| C=CC(=O)N1CC2(CCN(c3nc(N4CC[C@H](N5CC(C)C5)C4)nc4c(OCC(F)(F)F)c(-c5c(C)ccc6[nH]ncc56)c(C5CC5)cc34)CC2)C1 [Compound 296] | < 300 nM | > 90% |
| C=CC(=O)N1CC2(CCN(c3nc(N4CC[C@@H](N5CC(C)C5)C4)nc4c(OCC(F)(F)F)c(-c5c(C)ccc6[nH]ncc56)c(C5CC5)cc34)CC2)C1 [Compound 297] | < 300 nM | > 90% |
| C=CC(=O)N1CC2(CCN(c3nc(N4CC[C@H](N5CCC(C)C5)C4)nc4c(OCC(F)(F)F)c(-c5c(C)ccc6[nH]ncc56)c(C5CC5)cc34)CC2)C1 (stereo partly drawn) [Compound 298] | < 300 nM | > 90% |
| C=CC(=O)N1CC2(CCN(c3nc(N4CC[C@H](N5CC[C@@H](C)C5)C4)nc4c(OCC(F)(F)F)c(-c5c(C)ccc6[nH]ncc56)c(C5CC5)cc34)CC2)C1 [Compound 300] | < 300 nM | > 90% |
| C=CC(=O)N1CC2(CCN(c3nc(N4CC[C@@H](N5CC[C@@H](C)C5)C4)nc4c(OCC(F)(F)F)c(-c5c(C)ccc6[nH]ncc56)c(C5CC5)cc34)CC2)C1 [Compound 301] | < 300 nM | > 90% |
| C=CC(=O)N1CC2(CCN(c3nc(N4CC[C@H](N5C6CCC5CC6)C4)nc4c(OCC(F)(F)F)c(-c5c(C)ccc6[nH]ncc56)c(C5CC5)cc34)CC2)C1 [Compound 302] | < 300 nM | > 90% |
| C=CC(=O)N1CC2(CCN(c3nc(N4CC[C@@H](N5C6CCC5CC6)C4)nc4c(OCC(F)(F)F)c(-c5c(C)ccc6[nH]ncc56)c(C5CC5)cc34)CC2)C1 [Compound 303] | < 300 nM | > 90% |
| C=CC(=O)N1CC2(CCN(c3nc(N4CC5(CSC5)C4)nc4c(OCC(F)(F)F)c(-c5c(C)ccc6[nH]ncc56)c(C5CC5)cc34)CC2)C1 [Compound 304] | 300 to 1000 nM | 50 to 90% |
| C=CC(=O)N1CC2(CCN(c3nc(N4CC5(C4)C[S+]([O-])C5)nc4c(OCC(F)(F)F)c(-c5c(C)ccc6[nH]ncc56)c(C5CC5)cc34)CC2)C1 [Compound 305] | 300 to 1000 nM | 50 to 90% |
| C=CC(=O)N1CC2(CCN(c3nc(N4CC5(C4)CS(=O)(=O)C5)nc4c(OCC(F)(F)F)c(-c5c(C)ccc6[nH]ncc56)c(C5CC5)cc34)CC2)C1 [Compound 306] | < 300 nM | > 90% |
| C=CC(=O)N1CC2(CCN(c3nc(N4CC5(CCS(=O)(=O)CC5)C4)nc4c(OCC(F)(F)F)c(-c5c(C)ccc6[nH]ncc56)c(C5CC5)cc34)CC2)C1 [Compound 307] | < 300 nM | > 90% |
| C=CC(=O)N1CC2(CCN(c3nc(OC4CC5CCC4N5C)nc4c(OCC(F)(F)F)c(-c5c(C)ccc6[nH]ncc56)c(C5CC5)cc34)CC2)C1 (stereo not drawn) [Compound 308] | < 300 nM | > 90% |
| C=CC(=O)N1CC2(CCN(c3nc(OC4CC5CCC4N5CCOC)nc4c(OCC(F)(F)F)c(-c5c(C)ccc6[nH]ncc56)c(C5CC5)cc34)CC2)C1 (stereo not drawn) [Compound 309] | < 300 nM | > 90% |
| C=CC(=O)N1CC2(CCN(c3nc(OC4CCS(=O)(=O)C5(CC5)C4)nc4c(OCC(F)(F)F)c(-c5c(C)ccc6[nH]ncc56)c(C5CC5)cc34)CC2)C1 (stereo not drawn) [Compound 310] | 300 to 1000 nM | 50 to 90% |
| C=CC(=O)N1CC2(CCN(c3nc(OC4CCS(=O)(=O)C(C)(C)C4)nc4c(OCC(F)(F)F)c(-c5c(C)ccc6[nH]ncc56)c(C5CC5)cc34)CC2)C1 (stereo not drawn) [Compound 311] | < 300 nM | > 90% |
| C=CC(=O)N1CC2(CCN(c3nc(OC4CC5CCC(C4)S5(=O)=O)nc4c(OCC(F)(F)F)c(-c5c(C)ccc6[nH]ncc56)c(C5CC5)cc34)CC2)C1 (stereo not drawn) [Compound 312] | < 300 nM | > 90% |
| C=CC(=O)N1CC2(CCN(c3nc(OC4C5CCC4CS(=O)(=O)C5)nc4c(OCC(F)(F)F)c(-c5c(C)ccc6[nH]ncc56)c(C5CC5)cc34)CC2)C1 (stereo not drawn) [Compound 313] | < 300 nM | > 90% |
| C=CC(=O)N1CC2(CCN(c3nc(O[C@H]4C[C@@H]5C[C@H]4CS5(=O)=O)nc4c(OCC(F)(F)F)c(-c5c(C)ccc6[nH]ncc56)c(C5CC5)cc34)CC2)C1 [Compound 314] | < 300 nM | > 90% |
| C=CC(=O)N1CC2(CCN(c3nc(O[C@@H]4C[C@@H]5C[C@H]4CS5(=O)=O)nc4c(OCC(F)(F)F)c(-c5c(C)ccc6[nH]ncc56)c(C5CC5)cc34)CC2)C1 [Compound 315] | < 300 nM | > 90% |
